Test results published in patent publication US20250230193A1, “CYCLIC COMPOUND HAVING SELECTIVE KRAS INHIBITORY EFFECT ON HRAS AND NRAS” (CHUGAI SEIYAKU KABUSHIKI KAISHA, priority 2022, published 2025).
*1 amine or outer side, *2 acyl side, *3 side chain or, on linkers, in order; H or OH if unused. Where a SMILES comes first, the peptide text is derived from it. Bridges are numbered along the chain shown (N, C = ends). [ ]: non-standard residue; d: D form. The star is where a group is joined. hPhe(3-Cl-4-CF3) = N[C@@H](CCc1ccc(C(F)(F)F)c(Cl)c1)C(=O)O; NPrPhe(4-CF3) = CCCN[C@@H](Cc1ccc(C(F)(F)F)cc1)C(=O)O; X39 = Cc1ccc(C[C@@H](C(=O)[*:2])N(CC(C)C)[*:1])cc1; NMeGly(cPent) = CN[C@H](C(=O)O)C1CCCC1; NMeD = CN[C@@H](CC(=O)O)C(=O)O; NMeL = CN[C@@H](CC(C)C)C(=O)O; Morpholide = C1CN(*)CCO1; NMeA = CN[C@@H](C)C(=O)O; Ac5c = NC1(C(=O)O)CCCC1; Aze = O=C(O)[C@@H]1CCN1; Sar = CNCC(=O)O

How the values were obtained:
[1] = target: GDP-bound NRAS wild-type protein (Homo sapiens, UniProt P01111); experiment: Binding to NRAS by surface plasmon resonance (SPR), Single Cycle Kinetics
[2] = target: GDP-bound HRAS wild-type protein (Homo sapiens, UniProt P01112); experiment: Binding to HRAS by surface plasmon resonance (SPR), Single Cycle Kinetics
GDP-bound HRAS wild-type protein, sequence (P01112 whole entry): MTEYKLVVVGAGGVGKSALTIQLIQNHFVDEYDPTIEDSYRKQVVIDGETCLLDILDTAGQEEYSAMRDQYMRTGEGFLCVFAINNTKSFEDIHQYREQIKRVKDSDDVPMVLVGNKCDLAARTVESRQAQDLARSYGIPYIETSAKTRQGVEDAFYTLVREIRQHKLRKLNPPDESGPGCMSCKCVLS

GDP-bound NRAS wild-type protein, sequence (P01111 whole entry): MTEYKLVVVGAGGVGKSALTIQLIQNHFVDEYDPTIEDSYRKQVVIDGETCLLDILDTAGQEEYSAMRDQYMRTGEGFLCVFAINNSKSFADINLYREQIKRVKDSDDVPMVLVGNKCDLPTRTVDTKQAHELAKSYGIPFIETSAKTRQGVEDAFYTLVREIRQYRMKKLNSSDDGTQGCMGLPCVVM

CCCN1C(=O)CN(C)C(=O)[C@@H]2CCN2C(=O)[C@H]([C@@H](C)CC)NC(=O)[C@H](CC(C)C)N(C)C(=O)C[C@@H](C(=O)N2CCOCC2)N(C)C(=O)[C@H](C2CCCC2)N(C)C(=O)C2(CCCC2)NC(=O)CN(C)C(=O)[C@H](CCc2ccc(C(F)(F)F)c(Cl)c2)NC(=O)CN(C)C(=O)[C@@H]1Cc1ccc(C(F)(F)F)cc1 [PP0314] ([NMeL]I[Aze][Sar][NPrPhe(4-CF3)][Sar][hPhe(3-Cl-4-CF3)][Sar][Ac5c][NMeGly(cPent)][NMeD]-Morpholide; lactam N-11)
NRAS/KRAS (ratio of KD for GDP-bound NRAS wild-type to KD for KRAS) ([1]; SPR): B (a compound having 3 or more and less than 10 is denoted as B) | HRAS/KRAS (ratio of KD for GDP-bound HRAS wild-type to KD for KRAS) ([2]; SPR): C (A compound having a KD ratio of 0.1 or more and less than 3 is denoted as C)

CCO[C@@H]1C[C@H]2C(=O)NC3(CCC3)C(=O)N(C)[C@@H](C3CCCC3)C(=O)N(C)[C@H](C(=O)N3CCOCC3)CC(=O)N(C)[C@@H](CC(C)C)C(=O)N[C@@H]([C@@H](C)CC)C(=O)N(C)CC(=O)N(C)[C@H]3CC=CCN(C3=O)[C@@H](Cc3ccc(C(F)(F)F)cc3)C(=O)N(C)CC(=O)N[C@@H](CCc3cc(F)c(C(F)(F)F)c(F)c3)C(=O)N2C1 [PP0832]
NRAS/KRAS (ratio of KD value with respect to NRAS to KD value with respect to KRAS) ([1]; KD ratio, GDP-bound NRAS wild-type vs GDP-bound KRAS wild-type, SPR): C (A compound having a KD ratio of 0.1 or more and less than 3 is denoted as C) | HRAS/KRAS (ratio of KD value with respect to HRAS to KD value with respect to KRAS) ([2]; KD ratio, GDP-bound HRAS wild-type vs GDP-bound KRAS wild-type, SPR): C (A compound having a KD ratio of 0.1 or more and less than 3 is denoted as C)

CCCOC[C@H]1C(=O)N[C@@H]([C@@H](C)CC)C(=O)N(C)CC(=O)N(C)[C@H]2C/C=C\CCN(C2=O)[C@@H](Cc2ccc(C(F)(F)F)cc2)C(=O)N(C)CC(=O)N[C@@H](CCc2ccc(C(F)(F)F)c(Cl)c2)C(=O)N2C[C@H](OCC)C[C@H]2C(=O)NC2(CCC2)C(=O)N(C)[C@@H](C2CCCC2)C(=O)N(C)[C@H](C(=O)N(C)CCC)CC(=O)N1C [PP2831]
NRAS/KRAS (ratio of KD value with respect to GDP-bound NRAS wild-type protein to KD value with respect to KRAS) ([1]; class symbols): A (a compound having 10 or more and less than 20 is denoted as A) | HRAS/KRAS (ratio of KD value with respect to GDP-bound HRAS wild-type protein to KD value with respect to KRAS) ([2]; class symbols): A (a compound having 10 or more and less than 20 is denoted as A)

CCO[C@@H]1C[C@H]2C(=O)NC3(CCCC3)C(=O)N(C)[C@@H](C3CCCC3)C(=O)N(C)[C@H](C(=O)N3CCOCC3)CC(=O)N(C)[C@@H](CC(C)C)C(=O)N[C@@H]([C@@H](C)CC)C(=O)N(C)CC(=O)N(C)[C@H]3CCCCN(C3=O)[C@@H](Cc3ccc(C(F)(F)F)cc3)C(=O)N(C)CC(=O)N[C@@H](CCc3cc(F)c(C(F)(F)F)c(F)c3)C(=O)N2C1 [PP0554]
NRAS/KRAS (ratio of KD value with respect to GDP-bound NRAS wild-type protein to KD value with respect to KRAS) ([1]; SPR): B (a compound having 3 or more and less than 10 is denoted as B) | HRAS/KRAS (ratio of KD value with respect to GDP-bound HRAS wild-type protein to KD value with respect to KRAS) ([2]; SPR): B (a compound having 3 or more and less than 10 is denoted as B)

CCO[C@@H]1C[C@H]2C(=O)NC3(CCC3)C(=O)N(C)[C@@H](C3CCCC3)C(=O)N(C)[C@H](C(=O)N3CCOCC3)CC(=O)N(C)[C@@H](CC)C(=O)N[C@@H]([C@@H](C)CC)C(=O)N(C)CC(=O)N(C)[C@H]3CCCCCN(C3=O)[C@@H](Cc3ccc(C(F)(F)F)cc3)C(=O)N(C)CC(=O)N[C@@H](CCc3cc(F)c(C(F)(F)F)c(F)c3)C(=O)N2C1 [PP0678]
NRAS/KRAS (ratio of KD value with respect to GDP-bound NRAS wild-type protein to KD value with respect to KRAS) ([1]; SPR): B (a compound having 3 or more and less than 10 is denoted as B) | HRAS/KRAS (ratio of KD value with respect to GDP-bound HRAS wild-type protein to KD value with respect to KRAS) ([2]; SPR): B (a compound having 3 or more and less than 10 is denoted as B)

CC[C@H](C)[C@@H]1NC(=O)[C@H](CC(C)C)N(C)C(=O)C[C@@H](C(=O)N2CCOCC2)N(C)C(=O)[C@H](C2CCCC2)N(C)C(=O)C2(CC2)NC(=O)[C@@H]2CCCN2C(=O)[C@H](CCc2cc(F)c(C(F)(F)F)c(F)c2)NC(=O)CN(C)C(=O)[C@H](Cc2ccc(C(F)(F)F)cc2)N2CCCCC[C@@H](C2=O)N(C)C(=O)CN(C)C1=O [PP0496]
NRAS/KRAS (ratio of KD value with respect to GDP-bound NRAS wild-type protein to KD value with respect to KRAS) ([1]; SPR): B (a compound having 3 or more and less than 10 is denoted as B) | HRAS/KRAS (ratio of KD value with respect to GDP-bound HRAS wild-type protein to KD value with respect to KRAS) ([2]; SPR): B (a compound having 3 or more and less than 10 is denoted as B)

CC[C@H](C)[C@@H]1NC(=O)[C@H](CC(C)C)N(C)C(=O)C[C@@H](C(=O)N2CCOCC2)N(C)C(=O)[C@H](C2CCCC2)N(C)C(=O)C2(CCCC2)NC(=O)[C@@H]2CCCN2C(=O)[C@H](CCc2ccc(C(F)(F)F)c(Cl)c2)NC(=O)CN(C)C(=O)[C@H](Cc2ccc(C)cc2)N(CC(C)C)C(=O)[C@@H]2CCN2C(=O)[C@H](C)N(C)C1=O [PP0056] ([NMeL]I[NMeA][Aze][X39][Sar][hPhe(3-Cl-4-CF3)]P[Ac5c][NMeGly(cPent)][NMeD]-Morpholide; lactam N-11)
NRAS/KRAS (ratio of KD for GDP-bound NRAS wild-type to KD for KRAS) ([1]; SPR): C (A compound having a KD ratio of 0.1 or more and less than 3 is denoted as C) | HRAS/KRAS (ratio of KD for GDP-bound HRAS wild-type to KD for KRAS) ([2]; SPR): B (a compound having 3 or more and less than 10 is denoted as B)
